Key:
Human neutrophils [1] = assay: Modified Boyden Chamber Chemotaxis (LTB4-induced); format: cell-based; settings: 3×10^-8 M LTB4; for Relative Potency, Chemotaxis: potency relative to compound 1 defined as 1.0
Protocol: Human neutrophils were isolated from citrated peripheral blood using standard techniques of dextran sedimentation, followed by centrifugation on Histopaque® sterile solution (Sigma) or Ficoll-paque® (Pharmacia) and hypotonic lysis of erythrocytes. A final cell suspension of 3.4×10^6 neutrophils/ml of HEPES-buffered Hanks balanced salt solution (HBSS, pH 7.3) was added to the upper well (0.8 ml) of a modified Boyden chamber (blind well). […] Percent inhibition was calculated from cell counts corrected for random migration by subtracting the mean of the HBSS control.

Human neutrophils [2] = assay: Human Neutrophil Degranulation Assay (LTB4-induced myeloperoxidase release); format: cell-based; settings: LTB4 5×10^-8 M; for Relative Potency, Degranulation: potency relative to compound 1 defined as 1.0
Protocol: Neutrophils were purified from venous blood of normal human donors using standard techniques of dextran sedimentation, centrifugation on Ficoll-paque® (Pharmacia) or Histopaque® sterile solution (Sigma) and hypotonic lysis of erythrocytes (Boyum, A., Isolation of Leukocytes from Human Blood: Further Observations. Stand, J. Lab. Clin. Invest., 21 (Suppl. 97): 31, 1968). The purity of isolated neutrophils was >95%.
Neutrophil degranulation was determined by measuring the release of myeloperoxidase activity into the incubation medium. Neutrophils (3×10^6) in 1 ml HBSS solution were preincubated with cytochalasin B(5 μg) at 37° C. for 5 minutes, followed by preincubation with test compounds for 7 minutes. Neutrophils were then incubated for 2 to 20 minutes with LTB4 (5×10^-8 M) to induce degranulation. Following incubation, samples were centrifuged and myeloperoxidase was extracted from the cell pellets by sonication in phosphate buffer containing 0.4% Triton X-100. Triton X-100 was also added to the supernatants to a concentration of 0.4%. The supernatants and the pellet--extracts were then assayed spectrophotometrically for myeloperoxidase activity by determining the rate of decomposition of H2 O2 with o-dianisidine as hydrogen donor as described by Renlund, et al. (Renlund, D. G., MacFarlane, J. L., Christensen, R. D., Lynch, R. E., and Rothstein, G., A Quantitative and sensitive Method for Measurement of Myeloperoxidase, Clinical Research 28:75A, 1980). Myeloperoxidase activity released into the supernatant was expressed as the percent of the average total activity (pellet plus supernatant).

LTB4 receptor = target: T1, LTB4 receptor (Homo sapiens, UniProt Q15722); assay: LTB4 Receptor Binding Assay; settings: potency relative to compound 1 defined as 1.0; (3H) LTB4 0.6×10^-9 M, human neutrophils
T1 construct: endogenous in cells; host or cells: neutrophils purified from venous blood of normal human donors (purity >95%)
T1 sequence (Q15722 whole entry): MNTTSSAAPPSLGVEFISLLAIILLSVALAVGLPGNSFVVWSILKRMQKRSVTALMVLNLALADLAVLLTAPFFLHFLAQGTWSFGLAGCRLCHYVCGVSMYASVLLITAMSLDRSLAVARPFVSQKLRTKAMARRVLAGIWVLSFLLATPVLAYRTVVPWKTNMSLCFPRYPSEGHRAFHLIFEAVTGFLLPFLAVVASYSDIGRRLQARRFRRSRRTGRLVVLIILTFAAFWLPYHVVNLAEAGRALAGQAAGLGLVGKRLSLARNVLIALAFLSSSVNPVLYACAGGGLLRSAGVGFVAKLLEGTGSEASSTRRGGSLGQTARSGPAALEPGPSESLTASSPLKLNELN
Protocol: Neutrophils (4-6×10^6) in 1 ml Hanks' balanced salt solution containing 10 mM HEPES buffer (HBSS), pH 7.4 and 30 μM nordihydroguaiaretic acid were incubated with 0.6×10^-9 M (3H) LTB4 in the presence or absence of test compounds. The incubation was carried out at 0° C. for 45 minutes and terminated by adding 5 ml of ice-cold HBSS followed by rapid filtration of incubation mixture under vacuum through GF/C glass fiber filters. The filters were further washed with 10 ml HBSS and radioactivity was determined. Specific binding was defined as the difference between total binding and nonspecific binding which was not displaced by 10^-7 M unlabeled LTB4. All data refer to specific binding.

C=CCc1c(OCCCOc2ccc3c(c2CCC)OC(c2nnn[nH]2)CC3)ccc(C(C)=O)c1OC (centres unmarked)
Relative Potency, Chemotaxis (Human neutrophils [1]): 9 | Relative Potency, Degranulation (Human neutrophils [2]): 38 | Relative Potency, LTB4 Receptor Binding (LTB4 receptor): 0.8

CCCc1c(OCCCOc2ccc(C(C)=O)c(OC)c2CC2CC2)ccc2c1OC(c1nnn[nH]1)CC2 (centres unmarked)
Relative Potency, Chemotaxis (Human neutrophils [1]): 22.5 | Relative Potency, Degranulation (Human neutrophils [2]): 75 | Relative Potency, LTB4 Receptor Binding (LTB4 receptor): 2

CCCc1c(OCCCOc2ccc(C(C)=O)c(OC)c2CCC)ccc2c1OC(C(=O)O)CC2 (centres unmarked) [Compound 1, 7-[3,(4-acetyl-3-methoxy-2-propylphenoxy)propoxy]-3,4-dihydro-8-propyl-2H-1-benzopyran-2-carboxylic acid, reference compound]
IC50 (Human neutrophils [1]; Homo sapiens, Neutrophil): 1.8 µM | IC50 (Human neutrophils [2]; Homo sapiens, Neutrophil): 1.5 µM
